Results reported in patent US9493540B2, “Ecdysone receptor/invertebrate retinoid X receptor-based inducible gene expression system” (Intrexon Corporation, priority 2001, dated 2016).

Assays:
Type in all cases: cell-based, Choristoneura fumiferana
[1] = tested on: GAL4:CfEcR-DEF/VP16:LmUSP-EF; assay: Luciferase reporter gene induction in stably transfected CHO cells (pFRLuc); conditions: stable clone 1A2, CHO cells, 0, 1, 5, or 25 μM ligand, 48 hours, maximum fold induction
Text: This Example describes the construction of host cells comprising the EcR/invertebrate RXR-based gene expression modulation system according to the invention. To make stable cells expressing GAL4:CfEcR-DEF/VP16:LmUSP-EF (switch 1.18, prepared as described in Example 1), Applicants transfected the gene expression cassettes encoding the hybrid GAL4:CfEcR-DEF and VP16:LmUSP-EF polypeptides into Chinese hamster ovary CHO cells comprising a stably transfected reporter plasmid pFRLuc. […] The cells were harvested and reporter activity was assayed.
The transfected CHO cells were grown in the presence of 0, 1, 5, or 25 μM PonA steroid ligand or GS™-E non-steroid ligand for 48 hours. The cells were harvested, lysed and the reporter activity was measured. Total fly luciferase relative light units (RLU) are presented. The numbers on the top of the bars correspond to the maximum fold induction for each treatment. Bulk populations of cells were selected for resistance to the antibiotic neomycin (VP16:LmUSP/VP16:RXR constructs have the neomycin resistance gene incorporated). Several clones from each population were isolated by end point dilution. Three clones of stably transfected GAL4:CfEcR-DEF/VP16:LmUSP-EF cells were analyzed (see FIG. 10, clone 1A2; the data related to the two other clones are not shown).

[2] = tested on: CfEcR/LmUSP-based switch; assay: Luciferase reporter induction by two-hybrid switches transfected into NIH3T3 cells; conditions: non-steroid compared with steroid PonA, 0, 1, 5 or 25 μM, 48 hours
Procedure: (§1) Transfections: DNAs corresponding to the various switch constructs outlined in Example 1, specifically switches 1.1 through 1.8, were transfected into mouse NIH3T3 cells (ATCC) as follows. […] For 12-well plates, 4 μl of Superfect™ was mixed with 100 μl of growth medium. […] The cells were harvested and reporter activity was assayed. […] Ligands: The steroidal ligand Ponasterone A (PonA) was purchased from Sigma Chemical Company. […] Reporter Assays: Cells were harvested 48 hours after adding ligands. […] Twenty μl of lysate were assayed. […] In addition, LmUSP worked better than vertebrate RXR as a CfEcR partner. In particular, both the sensitivity, i.e. the concentration of ligand required for transactivation, and the magnitude of transactivation were increased with LmUSP compared to vertebrate RXR. […]
Briefly, full-length EcR and truncated EcRs, created by a truncation mutation at the junctions of A/B, C, D, E and F domains and fused to a GAL4 DNA binding domain encoding polynucleotide (SEQ ID NO: 33) as described in Example 1 above. […] The cells were harvested, lysed and luciferase reporter activity was measured in the cell lysates. […] The analysis was performed in triplicate and mean luciferase counts [total relative light units (RLU)] were determined as described above.

[3] = tested on: GAL4CfEcR-DEF/VP16LmUSP-EF (switch 1.18); assay: Effect of a second ligand on transactivation of the gene switch with pFRLuc in NIH3T3 cells; conditions: non-steroid ligand 1 μM or less, absence of 9-Cis-retinoic acid, 48 hours
Procedure: as §1
In particular, Applicants have determined the effect of 9-cis-retinoic acid on the transactivation potential of the GAL4CfEcR-DEF/VP16LmUSP-EF (switch 1.18) gene switch along with pFRLuc in NIH3T3 cells in the presence of non-steroid (GSE) for 48 hours.
Briefly, GAL4CfEcR-DEF, pFRLuc and VP16LmUSP-EF were transfected into NIH3T3 cells and the transfected cells were treated with 0, 0.04, 0.2, 1, 5 and 25 μM non-steroidal ligand (GSE) and 0, 1, 5 and 25 μM 9-Cis-retinoic acid (Sigma Chemical Company). The reporter activity was measured at 48 hours after adding ligands.

| SMILES | fold induction [1] [fold] | sensitivity of the switch to ligand [2] | induction of reporter activity [3] |
| --- | --- | --- | --- |
| CC(C)CC[C@@H](O)[C@](C)(O)[C@H]1CC[C@@]2(O)C3=CC(=O)[C@@H]4C[C@@H](O)[C@@H](O)C[C@]4(C)[C@H]3CC[C@]12C [PonA, Ponasterone A] | 42 |  |  |
| CCc1c(OC)cccc1C(=O)NN(C(=O)c1cc(C)cc(C)c1)C(C)(C)C [non-steroidal ligand, N-(2-ethyl-3-methoxybenzoyl)-N′-(3,5-dimethylbenzoyl)-N′-t-butylhydrazine] | 162 | more sensitive | very little induction |
